Data reported in PubChem BioAssay AID651883 (Southern Research Specialized Biocontainment Screening …, 2012).

Tested on: VEEV Trinidad donkey virus titer reduction, cell culture
Test: VEEV Trinidad donkey titer reduction, cell-based, Trinidad donkey strain (AID 651883)
Conditions: at 5 µM; stronger effect = lower value

Question: How did the log virus titer change turn out when `COc1ccc(NC(=O)c2cc([N+](=O)[O-])ccc2N=C2CN(C)CCN2C)cc1` was run?
Answer: < -5.95

Question: `CN1CCN(C)C(=Nc2ccc([N+](=O)[O-])cc2C(=O)Nc2ccccc2)C1` was tested. Which log virus titer change did it give?
Answer: < -5.95

Question: With `CCN1CCN(C)CC1=Nc1ccc([N+](=O)[O-])cc1C(=O)Nc1ccccc1` as the compound, how does the log virus titer change read?
Answer: < -5.95

Question: `CCN1CCN(Cc2nc3ccc([N+](=O)[O-])cc3c(=O)n2-c2ccccc2F)CC1` was tested. Which log virus titer change did it give?
Answer: -5.84

Same assay, conditions: titer change; at 0.5 µM; stronger effect = lower value

Question: How did the log virus titer change turn out when `COc1ccc(NC(=O)c2cc([N+](=O)[O-])ccc2N=C2CN(C)CCN2C)cc1` was run?
Answer: < -5.95

Question: How did the log virus titer change turn out when `CN1CCN(C)C(=Nc2ccc([N+](=O)[O-])cc2C(=O)Nc2ccccc2)C1` was run?
Answer: < -5.95

Question: With `CCN1CCN(C)CC1=Nc1ccc([N+](=O)[O-])cc1C(=O)Nc1ccccc1` as the compound, how does the log virus titer change read?
Answer: < -5.95

Question: `CCN1CCN(Cc2nc3ccc([N+](=O)[O-])cc3c(=O)n2-c2ccccc2F)CC1` was tested. Which log virus titer change did it give?
Answer: -0.518

Same assay, conditions: titer change; at 1 µM; stronger effect = lower value

Question: How did the log virus titer change turn out when `COc1ccc(NC(=O)c2cc([N+](=O)[O-])ccc2N=C2CN(C)CCN2C)cc1` was run?
Answer: < -5.95

Question: How did the log virus titer change turn out when `CN1CCN(C)C(=Nc2ccc([N+](=O)[O-])cc2C(=O)Nc2ccccc2)C1` was run?
Answer: < -5.95

Question: For `CCN1CCN(C)CC1=Nc1ccc([N+](=O)[O-])cc1C(=O)Nc1ccccc1`, which log virus titer change is on record?
Answer: < -5.95

Question: How did the log virus titer change turn out when `CCN1CCN(Cc2nc3ccc([N+](=O)[O-])cc3c(=O)n2-c2ccccc2F)CC1` was run?
Answer: -2.39

Same assay, conditions: titer change; at 2 µM; stronger effect = lower value

Question: With `COc1ccc(NC(=O)c2cc([N+](=O)[O-])ccc2N=C2CN(C)CCN2C)cc1` as the compound, how does the log virus titer change read?
Answer: < -5.95

Question: With `CN1CCN(C)C(=Nc2ccc([N+](=O)[O-])cc2C(=O)Nc2ccccc2)C1` as the compound, how does the log virus titer change read?
Answer: < -5.95

Question: Which log virus titer change does the source give for `CCN1CCN(C)CC1=Nc1ccc([N+](=O)[O-])cc1C(=O)Nc1ccccc1` here?
Answer: < -5.95

Question: `CCN1CCN(Cc2nc3ccc([N+](=O)[O-])cc3c(=O)n2-c2ccccc2F)CC1` was tested. Which log virus titer change did it give?
Answer: < -5.95
